Results as given in ChEMBL document CHEMBL1201862, “PubChem BioAssay data set” (2004).
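Each compound was tested at five concentrations against cells in 96-well plates for 48 hours. Abbreviation: GI50, concentration required for 50% inhibition of growth.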 The source made the active and inactive calls. No stated cut-off is given here; in the data, active = GI50 up to about 1.1 µM and inactive = higher.

Assays:
Assay in all cases: inhibition of tumour cell growth, NCI panel, 48 h
[1] = system: CCRF-CEM
[2] = system: HCT-116
[3] = system: HT-29
[4] = system: KM12
[5] = system: NCI-H23
[6] = system: OVCAR-4
[7] = system: OVCAR-8
[8] = system: SF-539
[9] = system: SK-MEL-5
[10] = system: SNB-75
[11] = system: SR
[12] = system: TK-10
[13] = system: UACC-62
[14] = system: UO-31
[15] = system: SK-MEL-28
[16] = system: NCI-H460
[17] = system: OVCAR-5

Measured: GI50

COc1ccc(S(=O)(=O)NNS(C)(=O)=O)cc1
inactive: [1] 70 µM | [2] > 100 µM | [3] > 100 µM | [4] > 100 µM | [5] > 100 µM | [6] > 100 µM | [7] > 100 µM | [8] > 100 µM | [9] > 100 µM | [10] > 100 µM | [11] > 100 µM | [12] > 100 µM | [13] > 100 µM | [14] > 100 µM

COc1ccc(NC(=O)COC(=O)c2cccc3c(=O)c4ccccc4[nH]c23)cc1
inactive: [1] 13.8 µM | [2] 12.9 µM | [3] 16 µM | [4] 16.9 µM | [5] 15.1 µM | [6] 17.9 µM | [7] 22.4 µM | [8] 18.1 µM | [15] 30.8 µM | [9] 15.3 µM | [10] 21 µM | [11] 11.3 µM | [12] 15.8 µM | [13] 17.7 µM | [14] 14.8 µM

CN(C)CCC(CCN(C)C)=NOC(=O)c1ccccc1
inactive: [1] > 100 µM | [2] > 100 µM | [3] > 100 µM | [4] > 100 µM | [5] > 100 µM | [16] > 100 µM | [6] > 100 µM | [7] > 100 µM | [8] > 100 µM | [15] > 100 µM | [9] > 100 µM | [10] > 100 µM | [12] > 100 µM | [13] > 100 µM | [14] > 100 µM

COc1ccc([C@@H]2OC(=O)C3C2C(=O)O[C@H]3c2ccc(OC)c(OC)c2)cc1OC (stereo not given in full)
inactive: [1] > 100 µM | [2] > 100 µM | [3] > 100 µM | [4] > 100 µM | [5] > 100 µM | [16] > 100 µM | [6] > 100 µM | [7] > 100 µM | [8] > 100 µM | [15] > 100 µM | [9] > 100 µM | [10] 81.5 µM | [12] > 100 µM | [13] > 100 µM | [14] > 100 µM

CN(C)C(c1ccccc1)C(O)c1ccccc1 (stereo not given)
inactive: [1] > 100 µM | [3] > 100 µM | [4] > 100 µM | [5] > 100 µM | [16] > 100 µM | [8] > 100 µM | [15] > 100 µM | [10] 75.5 µM | [12] > 100 µM | [13] > 100 µM | [14] > 100 µM

COc1ccc(C2c3cc4c(cc3OC(O)(CO)C2C(=O)O)OCO4)c(OC)c1OC.COc1ccc(C2c3cc4c(cc3OC3(O)COC(=O)C23)OCO4)c(OC)c1OC (stereo not given)
inactive: [1] 39.4 µM | [2] > 100 µM | [3] > 100 µM | [5] > 100 µM | [16] > 100 µM | [6] > 100 µM | [7] > 100 µM | [8] > 100 µM | [15] > 100 µM | [9] > 100 µM | [10] 75.2 µM | [12] > 100 µM | [13] > 100 µM | [14] > 100 µM

CCOC(=O)C1=C(C(=O)OCC)C2c3ccccc3C=CN2C(C(=O)OCC)=C(SC)S1 (stereo not given)
inactive: [1] 30.8 µM | [2] 50.7 µM | [3] > 100 µM | [5] 87.1 µM | [16] > 100 µM | [17] > 100 µM | [7] > 100 µM | [8] > 100 µM | [15] > 100 µM | [9] 32.4 µM | [10] > 100 µM | [11] 19.3 µM | [12] > 100 µM | [13] 58.1 µM | [14] 74.1 µM

O=C(N/N=C(/c1nc2ccc(Cl)cc2[nH]c1=O)C(O)c1ccc(Cl)cc1Cl)c1ccncc1 (stereo not given)
inactive: [1] > 100 µM | [2] > 100 µM | [3] > 100 µM | [4] > 100 µM | [5] > 100 µM | [16] > 100 µM | [17] > 100 µM | [7] > 100 µM | [8] > 100 µM | [15] > 100 µM | [9] > 100 µM | [10] > 100 µM | [12] > 100 µM | [13] > 100 µM | [14] > 100 µM

COc1ccc(CC(=O)c2cc(OC)c(OC)cc2C)cc1OC
inactive: [1] > 100 µM | [3] > 100 µM | [4] > 100 µM | [5] 20.5 µM | [16] > 100 µM | [6] 29.3 µM | [17] > 100 µM | [7] > 100 µM | [15] 81.3 µM | [9] 24.9 µM | [10] > 100 µM | [12] > 100 µM | [13] 38 µM | [14] 18.2 µM

Cc1cccc2[n+]1[C@H]1[C@H]([C@@H]3O[C@H]1c1ccccc13)[S+]([O-])N2 (stereo not given in full)
inactive: [1] 34.8 µM | [2] 30.3 µM | [3] 34.4 µM | [4] 42.4 µM | [16] 25 µM | [17] 80.7 µM | [7] 9.98 µM | [8] 77.6 µM | [15] > 100 µM | [10] 58.5 µM | [12] 90.4 µM | [14] 64.7 µM

CCN(CC)c1ccc(/N=C2/C=CC(=C(C#N)C#N)c3ccccc32)c(C)c1
inactive: [1] 1.18 µM | [2] 1.95 µM | [3] 3.24 µM | [5] 1.58 µM | [16] 2.55 µM | [6] 1.88 µM | [7] 2.23 µM | [15] 1.64 µM | [9] 1.58 µM | [10] 1.33 µM | [12] 3.25 µM | [13] 1.38 µM | [14] 2.29 µM

Cc1ccc(C)c(N2C(=O)C(=O)C(c3nc4ccccc4s3)C(=O)C2=O)c1
inactive: [1] > 100 µM | [2] > 100 µM | [3] > 100 µM | [4] > 100 µM | [5] > 100 µM | [16] > 100 µM | [6] > 100 µM | [17] 71.8 µM | [7] > 100 µM | [8] > 100 µM | [15] > 100 µM | [9] > 100 µM | [10] > 100 µM | [12] > 100 µM | [13] > 100 µM | [14] > 100 µM

Brc1ccc(/C=N/C23CC4CC(CC(C4)C2)C3)cc1
inactive: [1] > 100 µM | [2] > 100 µM | [3] > 100 µM | [4] > 100 µM | [5] > 100 µM | [16] > 100 µM | [6] > 100 µM | [17] > 100 µM | [7] > 100 µM | [8] > 100 µM | [15] > 100 µM | [9] > 100 µM | [10] > 100 µM | [12] > 100 µM | [13] > 100 µM | [14] > 100 µM
